Laboratory results as given in patent US20180134788A1, “Methods and Pharmaceutical Compositions (NTSR1 Inhibitors) for the Treatment of Hepatocellular Carcinomas” (INSERM (Institut National de la Sante et de la Recherche …, priority 2015, published 2018).

How the values were obtained:
[1] = tested on: phosphorylated-EGFR in HEP 3B and PLC/RF5 cells; assay: Western blot of Tyr 1173 phosphorylated EGFR in HCC cell lines; type: cell-based; conditions: both cell lines
Protocol: (§1) (A) Typical immunocytochemistry labeling for NTSR1 (Top) and EGFR (Bottom) in PLC/RF5 and HEP 3B cells treated or not with 1 μM SB216763 or 5 μM SR4892 or both for 48 h. (B and C) Representative western blot analyses of Tyr 1173 phosphorylated EGFR, EGFR, and actin of HEP 3B and PLC/RF5 treated as indicate above.
In both cell lines, phosphorylated-EGFR was increased under SB216763 treatment this increase was abolished when SR 48692 was added to the treatment.

[2] = tested on: NTSR1 expression in HEP 3B and PLC/PRF5 cells; assay: NTSR1 immunocytochemistry labeling in HCC cell lines; type: cell-based; conditions: for NTSR1 expression: PLC/PRF5 and HEP3B, 48 h, 1 μM SB216763 or 5 μM SR48692
Protocol: (§2) (A) NTS, NTSR2, NTSR3, and NTSR1 transcript analysis from 400 ng of HuH7, HEP 3B, and PLC/RF5, total RNA. NTSR1 A and NTSR1 B show the amplicon from two different set of primers. (B) Typical immunocytochemistry labeling for NTSR1 and DAPI in HEP 3B and PLC/RF5 cells. Cells were seeded on glass slides, grown for 48 h, and immunocytochemistry was performed as described in the Materials and Methods section. (C) NTSR1 transcript analysis from HuH7, HEP 3B and PLC/RF5 of total RNA from cells treated or not with […] LiCl for 6 h. (D) Typical immunocytochemistry NTSR1 labeling of HEP 3B and PLC/RF5 cells treated with 1 μM SB 216763 for 6 h.
as §1
(§3) Among the three cell lines studied, only PLC/PRF5 cells presented a dysregulation in the beta catenin pathway with a deletion in Axin (E4/−). […] We previously hypothesized that NTSR1 expression was correlated with deregulated wnt/beta catenin pathways. To evaluate this hypothesis, we forced the cellular and nuclear relocation of β-catenin in these cells lines with the LiCl, and an inhibitor of the glycogen synthase kinase (GSK) 3β, the SB216763. LiCl and SB216763 are known to decrease the degradation of β-catenin by inhibiting GSK-3 and promoting the accumulation of β-catenin in the cytoplasm of liver cancer cells.
(§4) It was previously shown that the NTS/NTSR1 complex potentiates EGF signaling in liver, colon, prostate, lung, and breast cancer. We investigated the possible relation between NTSR1 expression and EGFR expression and activation. […] Treatment with SR48692, a specific NTSR1 antagonist, decreased the expression of EGFR, whereas NTSR1 expression was not altered. When the combined treatment with SB216763 and SR48692 is used, the effect of SB216763 on EFGR expression is limited by the presence of the NTSR1 antagonist (FIG. 5A).

[3] = tested on: EGFR expression in PLC/PRF5 and HEP3B cells; assay: EGFR immunocytochemistry labeling in HCC cell lines; type: cell-based; conditions: for EGFR expression: PLC/PRF5 and HEP3B, 48 h, 1 μM SB216763 or 5 μM SR48692
Protocol: as §1, §4

HEP 3B cells = assay: Clonogenic assay, HEP 3B cells; type: cell-based; conditions: two weeks
Protocol: (§5) (A) Cellular proliferation performed on HEP 3B and HEP-R1b cells. Results are the means of 3 independents experiments and expressed as percentage of respective control. (B) Clonogenic assay performed with HEP 3B and HEP-R1b cells treated with different dose of erlotinib. Cells were incubated for two weeks with the treatment. Results are the means of 6 independents experiments and expressed as percentage of respective control. (C) Cellular proliferation performed on HEP 3B and HEP-R1a cells. Results are the means of 6 independents experiments. (D) Clonogenic assay performed with HEP 3B and HEP-R1a cells treated with different dose of sorafenib. Cells were incubated for two weeks with the treatment. Results are the means of 6 independents experiments.
(§6) We confirmed the erlotinib and sorafenib responses in cells overexpressing NTSR1 in clonogenic assay. […] In contrast, HEP 3B cells are not sensitive either to erlotinib or sorafenib.

[4] = tested on: HEP-R1b and HEP-R1a cells; assay: Clonogenic assay, NTSR1 overexpressing clones; type: cell-based; conditions: two weeks
Protocol: as §5, §6

[5] = tested on: cells overexpressing NTSR1 versus HEP 3B cells; assay: Cellular proliferation test; type: cell-based; conditions: cells overexpressing NTSR1 compared with HEP 3B cells
Protocol: as §5, §6

HEP-R1a tumors = assay: HEP-R1a experimental tumor growth in mice; type: in vivo
Protocol: (§7) (A) Experimental tumors were generated from the HCC cancer cell line, HEP 3B and PLC/RF5 and the NTSR1-overexpressing subclones. Comparative growth curves of HEP 3B, HEP-R1a, PLC/RF5, PLC/R1 in 8, 7, 10 and 7 mice, respectively. Tumor volumes were measured twice a week. (B) Tumor weight at 42 days. (C and D) Experimental tumors were generated from HEP 3B or HEP-R1a in the different mice. When the tumor size reached 100 mm3, mice were randomly distributed in 2 groups. A control group force feed with H2O, or with 1 mg/kg SR 48692 every day. (E) Typical IHC performed on paraffin sections for NTS, NTSR1 EGFR and phosphorylated EGFR labelling, 200× magnification.
(§8) Experimental tumors were generated from HEP 3B (A) and HEP-R1a (B) in the same mice. Mice were treated per os with 75 mg/kg erlotinib every day for 22 days. Tumor size was measured every two days. Result shown is the ratio of tumor compare to day 1. (C) The doubling time was subsequently calculated using the following formula: doubling time=t*((LN(2))/(LN(VOL F/VOL I)), at day 22.
(§9) Experimental tumors were generated from HEP 3B (D) or HEP-R1a (E) in the different mice. When the tumor size reached 100 mm^3, mice were randomly distributed in 2 groups. A control group force feed with H2O, and the treated group, force feed every day with […] sorafenib. Result shown is the ratio of tumor compare to day 1. (F) Tumor weight at day 15.
(§10) To determine the contribution of NTS/NTSR1 complex on tumor progression, mice were implanted with HCC cell lines and NTSR1 overexpressing clones. For HEP3B cells the tumors were measurable 21 days after cells injection. In contrast, the tumor burden for both clones overexpressing NTSR1 was measurable at day 13. The growth rate at day 42 was 2.9 and 2.08 fold higher for HEP-R1a and PLC-R1a as compared to respective parental cells, respectively, (FIG. 7A). As shown in FIG. 7B the tumor weights were in correspondence with the tumor size 4.3 and 2.8 fold higher for HEP-R1a and PLC-R1a as compared to their respective parental cells, respectively. To confirm the contribution of NTS/NSTR1 complex in tumor growth, animals were treated with a specific NTSR1 antagonist, the SR 48692. When tumors reach 100 mm3, the groups were treated per os with H2O, or 1 mg/kg SR 48692, respectively. […] The final tumor size of HEP-R1a tumors treated with SR 48692 was 441.9±39.85 mm^3, and was very similar to the untreated HEP 3B tumors 516.3±139.72 mm^3.
(§11) As shown above, NTSR1 activation induced a sustained EGFR activation, which we believe, acts as EGFR driver mutation (FIG. 4). To explore this hypothesis, the HCC cell lines HEP 3B and HEP-R1a were xenografted on the same mice. The mice were randomly distributed in two groups based on the size of the HEP 3B tumors. Since HEP-R1a tumors grow faster than HEP 3B tumors, HEP 3B cells were injected a few days before HEP-R1a cells. In the control group, the average HEP3B tumor size was 168.2±38.1 mm3 and the HEP-R1a tumor size was 79.7±16.4 mm3 at day 1. The treated group carried HEP 3B tumors of 164.7±31.2 mm3 and HEP-R1a tumors of 87.2±19.13 mm3 at day 1. Mice were daily treated, per os, with 75 mg/kg erlotinib or H2O for 22 days. […] Over the period of the treatment, the doubling time of HEP-R1a tumors was 7.0±0.55 days and 10.1±1.1 (p=0.0016) for control and treated with erlotinib, respectively. For the HEP 3B tumors, the doubling time was similar 7.8±0.52 and 7.7±0.84 days for control and treated group respectively (FIG. 8 C).
Sorafenib is a known multikinase inhibitor targeting Raf/MEK/ERK signaling at the level of Raf kinase, angiogenesis, VEGFR-2/-3, and PDGFR-β tyrosine kinase. Sorafenib is currently used to treat HCC with some success. In order to evaluate the autocrine NTS regulation on sorafenib responses, each HEP 3B or HEP-R1a cells were injected to four groups of mice. When tumors reach 100 mm3, the groups were treated per os with H2O, 30 mg/kg sorafenib for 15 days, respectively. […]

advanced HCC = conditions: patients with advanced HCC and well-compensated liver function, oral; cited from earlier work
HEP 3B tumors = assay: HEP 3B experimental tumor growth in mice; type: in vivo
Protocol: as §7, §8, §9, §10
as §11, with “C). […]” for “C).”

[6] = tested on: PLC-R1a and PLC-R2a cells; assay: Migration assay on type 1 collagen, PLC/PRF5 NTSR1 overexpressing clones; type: cell-based; conditions: 5 μM SR 48692, vs DMSO
Protocol: (§12) (A) Speed of migration on type 1 collagen of HEP 3B and NTSR1 overexpressing clones treated or not with 1/100 NTS or 1/100 Long Fragment NTS antibody. Results represent the mean±SEM of 5 independent experiments. (B) Speed of migration on type 1 collagen of PLC/RF5 and NTSR1 overexpressing clones in the presence or not of 5 μM SR 48692. Results represent the mean±SEM of 3 independent experiments. (C) Numbers of invasive cells crossing the type I collagen in Boyden chamber when HEP 3B and NTSR1 overexpressing clones were treated or not with NTS or Long Fragment NTS antibody or 5 μM. SR 48692. Results are expressed relatively to wild type cells and represent the mean±SEM of 5 to 7 independent experiments.
Migration assays were used to evaluate the effect of NTS/NTSR1 on cancer cell migration, another hallmark contributing to the invasion and metastasis of cancers. The procedure described in the methods section allows the comparison of the migration speed between both cell lines at the same time over a period of 48 h, and on the intact type I collagen matrix. […] Similar observations were made with PLC/PRF5 cells and derivative clones.

[7] = tested on: HEP3B cells with upregulated NTSR1 (HEP-R1a, HEP-R1b); assay: Boyden chamber invasion on type-I collagen-coated inserts; type: cell-based; conditions: HEP3B NTSR1 clones, 36 hours, 5 μM SR 48692 or antibodies
Protocol: as §12
In parallel, Boyden chambers were used to examine the invasiveness characteristics of HCC cancer cells, on type-I collagen-coated inserts over 36 hours incubation. Compared with HEP 3B cells, the number of invading cancer cells for HEP-R1a cells and HEP-R1b cells is increased by 211±19% (p<0.01) and 617±94% (p<0.01), respectively. To determine whether NTS contributes to cellular invasion, cells were exposed to the NTSR1 antagonist, or two antibodies directed against NTS or the long fragment NTS. […] In our hands, the PLC/PRF5 cells were very invasive.

[8] = tested on: NTSR1 transcription in HuH7, HEP 3B and PLC/PRF5 cells; assay: NTSR1 transcript analysis in HCC cell lines; type: cell-based; conditions: three HCC cell lines, 20 nM LiCl for 6 h
Protocol: as §2, §3

[9] = 30 mg/kg sorafenib per os, 15 days

For `Cn1cc(C2=C(c3ccc(Cl)cc3Cl)C(=O)NC2=O)c2ccccc21` [SB216763], the phosphorylated-EGFR ([1]; SB216763 treatment) was “increased”, the NTSR1 immunolabeling signal ([2]; HEP3B and PLC/PRF5 cells, 1 μM SB 216763 for 6 h) was “remarkably amplified” and the NTSR1 expression [2] was “increase”. For the same compound, the EGFR expression [3] was “increase”.
In the case of `CNC(=O)c1cc(Oc2ccc(NC(=O)Nc3ccc(Cl)c(C(F)(F)F)c3)cc2)ccn1` [sorafenib], the “sensitivity in clonogenic assay” value (HEP 3B cells) was “not sensitive”, the number of colonies ([4]; HEP-R1a cells exposed to sorafenib) was “markedly reduced” and the “sensitivity in cellular proliferation test” value [5] was “more sensitive”. The final tumor size (HEP-R1a tumors; [9]) was 400.3±59.9 mm3, the tumor growth rate (HEP-R1a tumors; [9]) was “inhibited by two fold” and the tumor weight (HEP-R1a tumors; sorafenib treated group, end of treatment (day 15)) was 0.650 ± 0.080 g. The survival (advanced HCC) was “prolong survival”, the tumor growth rate (HEP 3B tumors; HEP 3B tumors, 30 mg/kg sorafenib per os, 15 days) was “no influence” and the “tumor weight versus control” value (HEP 3B tumors; HEP 3B tumors, sorafenib treated group, end of treatment) was “approximately equal”.
For `COc1cccc(OC)c1-c1cc(C(=O)NC2(C(=O)O)C3CC4CC(C3)CC2C4)nn1-c1ccnc2cc(Cl)ccc12` (stereo not shown) [SR48692], the “SB216763-induced increase of phosphorylated-EGFR” value ([1]; SR 48692 added to SB216763 treatment) was “abolished”, the “decrease of migration speed” value ([6]; PLC-R1a cells) was 27% and the “decrease of migration speed” value ([6]; PLC-R2a cells) was 33%. For the same compound, the NTSR1 expression [2] was “not altered”, the EGFR expression [3] was “decreased” and the “effect of SB216763 on EGFR expression in presence of the NTSR1 antagonist” value ([3]; combined treatment 1 μM SB216763 and 5 μM SR48692, 48 h) was “limited”. The final tumor size (HEP-R1a tumors; 1 mg/kg SR 48692 per os) was 441.9±39.85 mm^3, the tumor growth rate (HEP-R1a tumors; 1 mg/kg SR 48692 per os every day) was “inhibited by two fold” and the “increase of cellular invasion when NTSR1 is upregulated” value [7] was “fully or partially abolished”. The tumor growth rate (HEP 3B tumors; HEP 3B tumors, 1 mg/kg SR 48692 per os every day) was “no influence”.
For `[Cl-].[Li+]` [LiCl], the NTSR1 transcription [8] was “upregulated”.
With `C#Cc1cccc(Nc2ncnc3cc(OCCOC)c(OCCOC)cc23)c1` [erlotinib] the “sensitivity in clonogenic assay” value (HEP 3B cells) was “not sensitive”, the number of colonies ([4]; HEP-R1b cells exposed to erlotinib) was “markedly reduced” and the “sensitivity in cellular proliferation test” value [5] was “more sensitive”. For the same compound, the tumor growth rate (HEP-R1a tumors; 75 mg/kg erlotinib per os daily, 22 days) was “drastically affected”, the tumor doubling time (HEP-R1a tumors; 75 mg/kg erlotinib, day 22) was 10.1 ± 1.1 days and the tumor growth response (HEP 3B tumors; HEP3B tumors, 75 mg/kg erlotinib per os daily, 22 days) was “did not respond”. It also gave a tumor doubling time (HEP 3B tumors; HEP 3B tumors, 75 mg/kg erlotinib, day 22) of 7.7 ± 0.84 days.
